Experimental data from US11976083B2, “Inhibitors of peptidylarginine deiminases” (Gilead Sciences, Inc., priority 2020, dated 2024).

Target: T1, human PAD4 (Homo sapiens, UniProt Q9UM07)
T1 construct: human PAD4 (NM_012387), A2-P663, was PCR amplified; His-SUMO (N, cleaved yes); made in house; host or cells: E. coli BL21(DE3)
Test: In vitro PAD4 BAEE biochemical assay
Conditions: BAEE substrate 3 mM, 5 nM PAD4, 2 mM calcium chloride; geometric mean of multiple experiments
Outline: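 Recombinant PAD4 (5 nM final) with 2 mM CaCl2 was preincubated with compound for 30 min at 25 °C in MOPS pH 7.6 buffer with DTT, then reacted with 3 mM BAEE for 2 h at 25 °C. Released ammonia was detected fluorimetrically with o-phthalaldehyde/DTT; IC50 from four-parameter fit, geometric mean of experiments.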

T1 sequence (Q9UM07 2-663): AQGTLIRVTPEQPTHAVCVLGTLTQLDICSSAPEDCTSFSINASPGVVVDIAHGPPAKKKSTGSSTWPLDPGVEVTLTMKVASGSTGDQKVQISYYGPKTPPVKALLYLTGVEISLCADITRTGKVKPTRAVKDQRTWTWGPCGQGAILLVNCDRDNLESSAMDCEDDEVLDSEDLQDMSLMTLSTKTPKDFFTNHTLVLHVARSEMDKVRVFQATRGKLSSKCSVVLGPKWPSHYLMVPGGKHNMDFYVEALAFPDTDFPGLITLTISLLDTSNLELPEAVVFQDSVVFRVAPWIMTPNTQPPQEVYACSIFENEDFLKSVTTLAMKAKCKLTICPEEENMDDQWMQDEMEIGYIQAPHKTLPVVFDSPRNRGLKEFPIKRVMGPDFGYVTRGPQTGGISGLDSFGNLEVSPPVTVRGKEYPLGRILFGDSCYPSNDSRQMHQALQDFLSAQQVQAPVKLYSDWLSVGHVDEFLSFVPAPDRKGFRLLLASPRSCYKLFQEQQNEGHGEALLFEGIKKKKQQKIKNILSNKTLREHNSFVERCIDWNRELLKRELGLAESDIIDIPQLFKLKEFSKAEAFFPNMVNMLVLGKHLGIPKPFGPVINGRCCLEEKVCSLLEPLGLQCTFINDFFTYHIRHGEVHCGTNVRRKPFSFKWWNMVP

| IC50 [nM] | SMILES |
| --- | --- |
| 30 | CO[C@@H]1CCN(C(=O)c2cc(F)c3c(c2)nc(-c2cc4ccc5nc4n2CC(F)(F)CCC[C@@H]2C[C@H]2C(=O)N[C@@H]5C)n3[C@@H]2C[C@H]2F)C[C@@H]1N [Example 837, (2~{R},5~{R},7~{R})-14-[5-[(3~{S},4~{R})-3-amino-4-methoxy-piperidine-1-carbonyl]-7-fluoro-1-[(1~{R},2~{R})-2-fluorocyclopropyl]benzimidazol-2-yl]-11,11-difluoro-2-methyl-3,13,19-triazatetracyclo [11.5.2.0^{5,7}.0^{16,20}] icosa-1(19),14,16(20), 17-tetraen-4-one] |
| 43 | COc1cc(C(=O)N2[C@H]3CC[C@@H]2[C@H](N)C3)cc2nc(-c3cc4ccc5cc4n3CCCOC[C@H]3C[C@H]3C(=O)N[C@@H]5C)n(C)c12 [Example 342, (2~{R},5~{R},7~{S})-14-[5-[(1~{R},2~{R},4~{S})-2-amino-7-azabicyclo[2.2.1]heptane-7-carbonyl]-7-methoxy-1-methyl-benzimidazol-2-yl]-2-methyl-9-oxa-3,13-diazatetracyclo[11.5.2.0^{5,7}.0^{16,20}] icosa-1(19),14,16(20),17-tetraen-4-one] |
| 104 | COc1cc(C(=O)N2CC[C@@H](OC)[C@@H](N)C2)cc2nc(-c3cc4ccc5nc4n3CCCCCc3cnc(Cl)cc3C(=O)N[C@@H]5C)n(C)c12 [Example 359, (2~{R})-17-[5-[(3~{S},4~{R})-3-amino-4-methoxy-piperidine-1-carbonyl]-7-methoxy-1-methyl-benzimidazol-2-yl]-7-chloro-2-methyl-3,8,16,22-tetrazatetracyclo[14.5.2.0^{5,10}.0^{19,23}] tricosa-1(22),5,7,9,17,19(23),20-heptaen-4-one] |
| 12 | COc1cc(C(=O)N2C[C@H](N)[C@@H]3CC[C@H]2C3)cc2nc(-c3cc4ccc5nc4n3CCCCCc3cc(Cl)ncc3C(=O)N[C@@H]5C)n(C3CC3)c12 [Example 818, (2~{R})-17-[5-[(1~{S},4~{R}, 5~{R})-4-amino-2-azabicyclo[3.2.1]octane-2-carbonyl]-1-cyclopropyl-7-methoxy-benzimidazol-2-yl]-8-chloro-2-methyl-3,7,16,22-tetrazatetracyclo[14.5.2.0^ {5,10).0^{19,23}]tricosa-1(21),5(10),6,8,17,19,22-heptaen-4-one] |
| 372 | COc1cc(C(=O)N2[C@H]3CC[C@@H]2[C@H](N)C3)cc2nc(-c3cc4ccc5nc4n3CCCCCCn3ccc(n3)C(=O)N[C@@H]5C)c(C)n12 [Example 36, (2~{R})-16-[7-[(1~{R},2~{R},4~{S})-2-amino-7-azabicyclo[2.2.1]heptane-7-carbonyl]-5-methoxy-3-methyl-imidazo[1,2-a]pyridin-2-yl]-2-methyl-3,8,15,21,23-pentazatetracyclo[13.5.2.1^{5,8}.0^{18,22}] tricosa-1(21),5(23),6,16,18(22),19-hexaen-4-one] |
| 120 | CO[C@@H]1CCN(C(=O)c2cc(F)c3c(c2)nc(-c2cc4ccc5nc4n2CCCCCC[C@@H](c2cccc(Cl)n2)C(=O)N[C@@H]5C)n3C2CC2)C[C@@H]1N [Example 873, (8~{S},11~{R})-17-[5-[(3~{S}, 4~{R})-3-amino-4-methoxy-piperidine-1-carbonyl]-1-cyclopropyl-7-fluoro-benzimidazol-2-yl]-8-(6-chloro-2-pyridyl)-11-methyl-1,10,19-triazatricyclo[10.5.2.0^{15,18}] nonadeca-12(19), 13,15(18),16-tetraen-9-one] |
| 15 | COc1cc(C(=O)N2[C@H]3CC[C@@H]2[C@H](N)C3)cc2nc(-c3cc4ccc5nc4n3C[C@@H]3C[C@H]3COCCC(=O)N[C@@H]5C)c(C)n12 [Example 322, (3~{R},5~{R},12~{R})-18-[7-[(1~{R},2~{R},4~{S})-2-amino-7-azabicyclo[2.2.1]heptane-7-carbonyl]-5-methoxy-3-methyl-imidazo[1,2-a]pyridin-2-yl]-12-methyl-7-oxa-1,11,20-triazatetracyclo[11.5.2.0^{3,5}.0^{16,19}] icosa-13(20),14,16(19),17-tetraen-10-one] |
| 64 | COc1cc(C(=O)N2CC[C@@H](OC)[C@@H](N)C2)cc2nc(-c3cc4ccc5nc4n3CCCCCC[C@@]3(CCCO3)C(=O)N[C@@H]5C)n(C)c12 [Example 687, (8~{R},11~{R})-17-[5-[(3~{S),4~{R})-3-amino-4-methoxy-piperidine-1-carbonyl]-7-methoxy-1-methyl-benzimidazol-2-yl]-11-methyl-spiro[1,10,19-triazatricyclo[10.5.2.0^ {15,18}]nonadeca-12(19),13,15(18),16-tetraene-8,2′-tetrahydrofuran]-9-one] |
| 85 | COc1cc(C(=O)N2CC[C@@H](OC)[C@@H](N)C2)cc2nc(-c3cc4ccc5nc4n3CCCCCCC3(COC3)C(=O)N[C@@H]5C)n(C)c12 [Example 611, (11~{R})-17-[5-[(3~{S}, 4-{R})-3-amino-4-methoxy-piperidine-1-carbonyl]-7-methoxy-1-methyl-benzimidazol-2-yl]-11-methyl-spiro[1,10,19-triazatricyclo[10.5.2.0^{15,18}]nonadeca-12,14,16,18-tetraene-8,3′-oxetane]-9-one] |
| 60 | COc1cc(C(=O)N2CCC[C@@H](N)C2)cc2nc(-c3cc4ccc5nc4n3C[C@H]3C[C@H]3CCCC(C)(C)C(=O)N[C@@H]5C)n(C)c12 [Example 119, (3~{S},5~{R},12~{R})-18-[5-[(3~{R})-3-aminopiperidine-1-carbonyl]-7-methoxy-1-methyl-benzimidazol-2-yl]-9,9,12-trimethyl-1,11,20-triazatetracyclo[11.5.2.0^{3,5}.0^{16,19}] icosa-13(20),14,16(19),17-tetraen-10-one] |
| 20 | COc1cc(C(=O)N2[C@H]3CC[C@@H]2[C@H](N)C3)cc2nc(-c3cc4ccc5nc4n3CCCCC[C@H](OC)CC(=O)N[C@@H]5C)c(C)n12 [Example 332, (7~{S},11~{R})-17-[7-[(1~{R},2~{R},4~{S})-2-amino-7-azabicyclo[2.2.1]heptane-7-carbonyl]-5-methoxy-3-methyl-imidazo[1,2-a]pyridin-2-yl]-7-methoxy-11-methyl-1,10,19-triazatricyclo[10.5.2.0^{15,18}]nonadeca-12(19),13,15(18),16-tetraen-9-one] |
| 40 | C[C@H]1NC(=O)[C@]2(C)C[C@H]2CCCCCn2c(-c3nc4cc(C(=O)N[C@H]5CNCC[C@@H]5F)c(F)cc4n3C3CC3)cc3ccc1nc32 [Example 544, 1-cyclopropyl-2-[(2~ {R},5~{R},7~{R})-2,5-dimethyl-4-oxo-3,13,19-triazatetracyclo [11.5.2.0^{5,7}.0^{16,20}]icosa-1(19),14,16(20), 17-tetraen-14-yl]-6-fluoro-~ {N}-[(3~{S},4~{S})-4-fluoro-3-piperidyl]benzimidazole-5-carboxamide] |
| 72 | COc1cc(C(=O)N2CCC[C@@H](N)C2)cc2nc(-c3cc4ccc5nc4n3CCCCCCCC(=O)N[C@@H]5C)n(C3CC3)c12 [Example 229, (11~{R})-17-[5-[(3~{R})-3-aminopiperidine-1-carbonyl]-1-cyclopropyl-7-methoxy-benzimidazol-2-yl]-11-methyl-1,10,19-triazatricyclo[10.5.2.0^{15,18}]nonadeca-12(19),13,15(18),16-tetraen-9-one] |
| 56 | C[C@H]1NC(=O)C(C)(C)CCCCCCn2c(-c3nc4cc(C(=O)N5[C@H]6CC[C@@H]5[C@H](N)C6)c(F)c(F)c4n3C)cc3ccc1nc32 [Example 555, (11~{R})-17-[5-[(1~{R}, 2~{R},4~{S})-2-amino-7-azabicyclo [2.2.1]heptane-7-carbonyl]-6,7-difluoro-1-methyl-benzimidazol-2-yl]-8,8,11-trimethyl-1,10,19-triazatricyclo [10.5.2.0^{15,18}]nonadeca-12(19),13,15(18),16-tetraen-9-one] |
| 36 | COc1cc(C(=O)N2CCC[C@@H](N)C2)cc2nc(-c3cc4ccc5nc4n3C/C=C(/F)COCCC(=O)N[C@@H]5C)n(C)c12 [Example 620, (3~{E},11~{R})-17-[5-[(3~{R})-3-aminopiperidine-1-carbonyl]-7-methoxy-1-methyl-benzimidazol-2-yl]-4-fluoro-11-methyl-6-oxa-1,10,19-triazatricyclo[10.5.2.0^ {15,18}]nonadeca-3,12(19),13,15(18), 16-pentaen-9-one] |
| 23 | COc1cc(C(=O)N2C[C@H](N)[C@@H]3CC[C@H]2C3)cc2nc(-c3cc4ccc5cc4n3CCCCCCC(C)(C)C(=O)N[C@@H]5C)n(C)c12 [Example 465, (11~{R})-17-[5-[(1~{S},4~{R},5~{R})-4-amino-2-azabicyclo[3.2.1]octane-2-carbonyl]-7-methoxy-1-methyl-benzimidazol-2-yl]-8,8,11-trimethyl-1,10-diazatricyclo[10.5.2.0^{15,18}]nonadeca-12(19),13,15(18),16-tetraen-9-one] |
| 44 | COc1cc(C(=O)N2C[C@H](N)[C@@H]3CC[C@H]2C3)cc2nc(-c3cc4ccc5nc4n3CCCCCc3nccnc3C(=O)N[C@@H]5C)n(C)c12 [Example 484, (2~{R})-17-[5-[(1~{S},4~{R},5~{R})-4-amino-2-azabicyclo[3.2.1]octane-2-carbonyl]-7-methoxy-1-methyl-benzimidazol-2-yl]-2-methyl-3,6,9,16,22-pentazatetracyclo[14.5.2.0^{5,10}.0^{19, 23}]tricosa-1(22),5(10),6,8,17,19(23),20-heptaen-4-one] |
| 176 | COc1cc(C(=O)N2[C@H]3CC[C@@H]2[C@H](N)[C@H](OC(F)F)C3)cc2nc(-c3cc4ccc5nc4n3CCCCC[C@@H]3C[C@H]3C(=O)N[C@@H]5C)n(C)c12 [Example 581, (2~{R},5~{R},7~{R})-14-[5-[(1~{R},2~{S},3~ {R},5~{S})-2-amino-3-(difluoromethoxy)-8-azabicyclo[3.2.1]octane-8-carbonyl]-7-methoxy-1-methyl-benzimidazol-2-yl]-2-methyl-3,13,19-triazatetracyclo[11.5.2.0^ {5,7}.0^{16,20}]icosa-1(19), 14,16(20),17-tetraen-4-one] |
